# Key:
# HDAC5 = HDAC5 (Homo sapiens, UniProt Q9UQL6); assay: HDAC5 continuous fluorescence deacylation assay; format: biochemical
# HDAC4 = HDAC4 (Homo sapiens, UniProt P56524); assay: HDAC4 continuous fluorescence deacylation assay; format: biochemical
# Sirt2 = molecular target: T1, Sirt2 (Homo sapiens, UniProt Q8IXJ6); assay: Cell-based NanoBRET assay for Sirt2 target engagement in HEK293T cells; conditions: tracer SirReal-TAMRA 2 μM, read-out: Cellular Sirt2 target engagement IC50 (NanoBRET)
# T1 construct: expressed in transfected cells; host or cells: HEK293T
# T1 sequence (Q8IXJ6 1-389): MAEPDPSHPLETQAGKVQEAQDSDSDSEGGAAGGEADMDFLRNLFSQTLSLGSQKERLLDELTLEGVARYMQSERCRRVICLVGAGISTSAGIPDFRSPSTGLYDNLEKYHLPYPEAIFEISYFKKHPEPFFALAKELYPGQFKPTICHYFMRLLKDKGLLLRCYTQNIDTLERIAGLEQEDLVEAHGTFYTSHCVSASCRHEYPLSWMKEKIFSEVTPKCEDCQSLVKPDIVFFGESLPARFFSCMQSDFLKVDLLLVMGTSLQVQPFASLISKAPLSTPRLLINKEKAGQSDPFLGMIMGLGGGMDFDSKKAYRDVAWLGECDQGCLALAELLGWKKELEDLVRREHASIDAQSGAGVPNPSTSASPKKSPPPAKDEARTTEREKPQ
# [1] = system: MCF-7 breast cancer cells; assay: Cell viability assay (MTT) MCF-7; format: cell-based; conditions: Homo sapiens, MCF7, 72 h
# Method in brief: (§1)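 HGC27 and PC-3M-luc cells (2000/well) were read by MTS after compound in 0.5% DMSO. W1 (10^4/well) and MCF-7 (2 × 10^3/well) were given half-log dilutions for 72 h, then MTT for 1 h, with absorbance at 570 nm minus 690 nm. Viability was fitted to a four-parameter logistic curve.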
# Sirt6 = Sirt6 (Homo sapiens, UniProt Q8N6T7); assay: Sirt6 in vitro deacylation HPLC assay; format: biochemical
# W1 ovarian cancer cells = assay: Cell viability assay (MTT) W1; format: cell-based; conditions: 72 h
# Method in brief: as §1
# HDAC1 = molecular target: T2, HDAC1 (Homo sapiens, UniProt Q13547); assay: HDAC1 in vitro deacetylation assay (ZMAL); format: biochemical
# T2 construct: purchased BPS Bioscience 50051
# α-tubulin acetylation = assay: Immunofluorescence microscopy of α-tubulin acetylation in PC-3M-luc cells; format: cell-based; conditions: 20 μM, 5 h
# Description: The detection of acetylation levels of α-tubulin by immunofluorescence was performed as previously described.[47] In brief, PC-3M-luc cells (25 000 cells per well) were plated in Ibidi 8-well slides (Ibidi, catalogue no. 80826) and incubated overnight at 37 °C, 5% CO2. Next, cells were treated with 20 μM of inhibitor. After 5 h, the medium was removed and the cells washed with PBS and fixed with 4% PFA for 8–10 min at ambient temperature. Cells were rinsed three times with PBS and lysed with extraction buffer (PBS, 0.1% Triton X-100) for 3–5 min at ambient temperature. After another washing step with PBS, blocking buffer (PBS, 0.1% Triton, 5% FCS) was added for at least 10 min before incubating with monoclonal acetylated α-tubulin antibody (1:500, Sigma-Aldrich, catalogue no. T6793) in blocking buffer overnight at 4 °C. […] The cells were rinsed two times with blocking buffer and once with PBS and DAPI in mounting medium ([…] HardSet Antifade Mounting Medium with DAPI, no. H-1500-10) diluted 1:50 in PBS was added and it was incubated for 10 min in the dark. Confocal microscopy was performed with a Leica SP8 confocal microscope equipped with a 40×/1.40 oil objective (Leica Microsystems) keeping the laser settings of the images constant to allow direct comparison of signal intensities between images.
# Sirt3 = molecular target: T3, Sirt3 (Homo sapiens, UniProt Q9NTG7); assay: Sirt3 in vitro deacetylation assay (ZMAL); format: biochemical
# T3 construct: the respective sirtuin (Sirt1_134–747, Sirt2_56–356, or Sirt3_118–395) was mixed with; made in house; host or cells: Escherichia coli BL21 Star (DE3)
# T3 sequence (Q9NTG7 118-395): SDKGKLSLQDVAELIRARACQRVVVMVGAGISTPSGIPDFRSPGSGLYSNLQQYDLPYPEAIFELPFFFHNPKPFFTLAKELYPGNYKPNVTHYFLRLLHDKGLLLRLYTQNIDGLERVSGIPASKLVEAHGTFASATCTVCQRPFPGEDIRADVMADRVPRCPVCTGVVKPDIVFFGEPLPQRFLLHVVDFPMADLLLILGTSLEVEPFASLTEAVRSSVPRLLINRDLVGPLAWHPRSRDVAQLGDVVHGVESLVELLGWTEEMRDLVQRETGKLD
# HDAC3/NcoR2 = molecular target: T4, HDAC3/NcoR2 (Homo sapiens, UniProt O15379); assay: HDAC3 in vitro deacetylation assay (ZMAL); format: biochemical; conditions: mean ± SD
# T4 construct: purchased BPS Bioscience 50003
# [2] = system: HGC27 gastric carcinoma cells; assay: Cell viability assay (MTS) HGC27; format: cell-based; conditions: Homo sapiens, HGC-27, 72 h
# Method in brief: as §1
# HDAC4, sequence (P56524 whole entry, species assumed): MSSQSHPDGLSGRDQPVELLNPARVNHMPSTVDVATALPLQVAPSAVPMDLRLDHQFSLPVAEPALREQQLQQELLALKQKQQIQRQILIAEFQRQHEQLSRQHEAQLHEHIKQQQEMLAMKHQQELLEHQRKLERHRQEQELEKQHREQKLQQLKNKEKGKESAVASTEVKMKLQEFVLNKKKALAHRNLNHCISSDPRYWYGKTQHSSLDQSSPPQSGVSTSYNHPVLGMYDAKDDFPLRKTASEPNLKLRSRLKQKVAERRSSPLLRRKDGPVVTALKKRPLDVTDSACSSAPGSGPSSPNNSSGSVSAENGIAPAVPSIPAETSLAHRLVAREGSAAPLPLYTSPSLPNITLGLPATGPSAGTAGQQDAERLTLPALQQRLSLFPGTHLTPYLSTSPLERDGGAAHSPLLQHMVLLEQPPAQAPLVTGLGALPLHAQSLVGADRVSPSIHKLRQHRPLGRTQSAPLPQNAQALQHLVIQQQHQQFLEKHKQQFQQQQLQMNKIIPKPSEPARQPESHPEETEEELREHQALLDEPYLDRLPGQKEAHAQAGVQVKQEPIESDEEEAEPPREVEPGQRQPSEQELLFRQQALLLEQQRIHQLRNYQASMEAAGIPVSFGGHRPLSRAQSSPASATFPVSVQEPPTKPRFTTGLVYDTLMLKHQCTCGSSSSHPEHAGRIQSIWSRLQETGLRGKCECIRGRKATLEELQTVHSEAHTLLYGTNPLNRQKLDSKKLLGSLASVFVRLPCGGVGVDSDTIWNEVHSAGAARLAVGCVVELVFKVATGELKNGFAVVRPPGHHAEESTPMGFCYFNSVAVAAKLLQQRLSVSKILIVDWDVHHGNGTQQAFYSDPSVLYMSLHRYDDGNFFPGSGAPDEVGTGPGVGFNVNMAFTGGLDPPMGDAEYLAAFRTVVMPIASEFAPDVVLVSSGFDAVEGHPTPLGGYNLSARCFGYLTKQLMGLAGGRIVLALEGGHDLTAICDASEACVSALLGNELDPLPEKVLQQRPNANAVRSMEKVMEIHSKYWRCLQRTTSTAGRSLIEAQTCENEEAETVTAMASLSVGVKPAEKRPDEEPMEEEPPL
# Sirt6, sequence (Q8N6T7 whole entry, species assumed): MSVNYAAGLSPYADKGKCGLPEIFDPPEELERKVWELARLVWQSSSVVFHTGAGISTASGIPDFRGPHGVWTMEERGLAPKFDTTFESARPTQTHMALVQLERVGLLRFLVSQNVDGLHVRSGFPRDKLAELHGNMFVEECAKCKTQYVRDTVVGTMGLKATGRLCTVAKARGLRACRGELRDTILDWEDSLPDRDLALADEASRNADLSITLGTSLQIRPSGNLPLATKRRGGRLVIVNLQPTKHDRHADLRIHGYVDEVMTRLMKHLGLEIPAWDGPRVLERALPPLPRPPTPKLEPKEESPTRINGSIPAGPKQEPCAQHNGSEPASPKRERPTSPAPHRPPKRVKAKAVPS
# HDAC5, sequence (Q9UQL6 whole entry, species assumed): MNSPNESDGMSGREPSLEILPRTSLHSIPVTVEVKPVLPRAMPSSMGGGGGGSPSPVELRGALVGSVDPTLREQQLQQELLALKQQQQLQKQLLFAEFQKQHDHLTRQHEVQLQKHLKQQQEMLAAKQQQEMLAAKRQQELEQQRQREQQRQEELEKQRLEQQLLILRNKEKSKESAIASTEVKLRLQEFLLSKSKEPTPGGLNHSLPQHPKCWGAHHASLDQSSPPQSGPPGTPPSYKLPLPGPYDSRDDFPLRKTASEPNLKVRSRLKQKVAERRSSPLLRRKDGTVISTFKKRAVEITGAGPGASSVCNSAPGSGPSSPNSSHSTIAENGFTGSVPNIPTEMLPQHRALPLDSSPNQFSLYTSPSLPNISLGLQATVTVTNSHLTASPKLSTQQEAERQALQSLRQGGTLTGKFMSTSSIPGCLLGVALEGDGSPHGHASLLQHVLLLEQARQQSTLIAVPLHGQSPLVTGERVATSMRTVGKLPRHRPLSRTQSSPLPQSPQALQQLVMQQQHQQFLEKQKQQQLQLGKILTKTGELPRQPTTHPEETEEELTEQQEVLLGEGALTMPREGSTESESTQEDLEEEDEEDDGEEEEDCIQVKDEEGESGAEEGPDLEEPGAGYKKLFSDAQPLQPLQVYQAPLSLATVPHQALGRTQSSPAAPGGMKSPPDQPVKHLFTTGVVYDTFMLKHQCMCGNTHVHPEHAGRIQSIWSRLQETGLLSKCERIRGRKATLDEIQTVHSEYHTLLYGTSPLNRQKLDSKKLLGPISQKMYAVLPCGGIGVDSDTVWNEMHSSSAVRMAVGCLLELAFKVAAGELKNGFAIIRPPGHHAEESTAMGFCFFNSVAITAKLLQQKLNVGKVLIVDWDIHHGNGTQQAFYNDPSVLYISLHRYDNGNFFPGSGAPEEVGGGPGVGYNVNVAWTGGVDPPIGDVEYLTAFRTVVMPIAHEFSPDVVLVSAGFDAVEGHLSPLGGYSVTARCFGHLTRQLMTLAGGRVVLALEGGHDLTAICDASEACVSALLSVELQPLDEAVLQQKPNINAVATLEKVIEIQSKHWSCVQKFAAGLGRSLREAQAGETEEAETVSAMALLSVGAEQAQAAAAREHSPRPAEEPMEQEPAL
# T2 sequence (Q13547 whole entry): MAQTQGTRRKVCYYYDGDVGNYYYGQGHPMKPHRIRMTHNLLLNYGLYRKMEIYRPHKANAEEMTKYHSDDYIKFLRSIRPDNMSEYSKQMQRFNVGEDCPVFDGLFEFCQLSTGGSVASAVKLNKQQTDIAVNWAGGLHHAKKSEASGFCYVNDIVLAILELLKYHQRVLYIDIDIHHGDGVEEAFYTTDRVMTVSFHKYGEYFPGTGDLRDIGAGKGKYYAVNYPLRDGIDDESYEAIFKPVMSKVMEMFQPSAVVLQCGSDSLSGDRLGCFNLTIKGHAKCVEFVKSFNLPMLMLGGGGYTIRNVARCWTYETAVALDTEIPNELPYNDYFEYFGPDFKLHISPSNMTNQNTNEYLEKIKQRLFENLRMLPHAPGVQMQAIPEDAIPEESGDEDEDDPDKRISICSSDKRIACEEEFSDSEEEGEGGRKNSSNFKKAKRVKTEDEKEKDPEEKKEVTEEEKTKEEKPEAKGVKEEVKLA
# T4 sequence (O15379 whole entry): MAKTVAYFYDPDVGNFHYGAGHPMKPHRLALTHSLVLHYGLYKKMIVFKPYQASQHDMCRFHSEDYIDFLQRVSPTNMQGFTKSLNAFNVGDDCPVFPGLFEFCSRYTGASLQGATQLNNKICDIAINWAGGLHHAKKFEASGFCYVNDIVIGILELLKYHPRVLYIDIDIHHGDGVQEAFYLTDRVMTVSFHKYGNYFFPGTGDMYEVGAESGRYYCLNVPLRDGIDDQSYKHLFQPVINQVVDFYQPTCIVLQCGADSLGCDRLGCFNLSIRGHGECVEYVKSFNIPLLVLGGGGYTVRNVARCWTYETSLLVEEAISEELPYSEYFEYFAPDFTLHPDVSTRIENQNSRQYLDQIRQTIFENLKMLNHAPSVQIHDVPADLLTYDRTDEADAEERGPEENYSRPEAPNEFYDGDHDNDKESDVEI
# T4 sequence (Q9Y618 395-489 partner limits assumed): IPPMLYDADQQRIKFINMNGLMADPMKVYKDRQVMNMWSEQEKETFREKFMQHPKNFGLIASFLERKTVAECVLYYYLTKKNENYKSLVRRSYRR
compound,measurement,setting,value
"CCCCN(Cc1ccc(C(=O)NO)cc1)C(=O)CCCCn1cc(COc2cccc(Cc3cnc(NC(=O)CSc4nc(C)cc(C)n4)s3)c2)nn1 [Compound 33, 4-((N-Butyl-5-(4-((3-((2-(2-((4,6-dimethylpyrimidin-2-yl)thio)acetamido)thiazol-5-yl)methyl)phenoxy)methyl)-1H-1,2,3-triazol-1-yl)pentanamido)methyl)-N-hydroxybenzamide]",IC50,HDAC5,> 6 µM
same,inhibition at 6 µM,"HDAC5; @ 6 µM, read-out: HDAC5 percentual inhibition",18%
same,inhibition at 20 µM,"HDAC5; @ 20 μM, read-out: HDAC5 percentual inhibition",57%
same,IC50,HDAC4,> 20 µM
same,inhibition at 6 µM,"HDAC4; @ 6 µM, read-out: HDAC4 percentual inhibition",4%
same,inhibition at 20 µM,"HDAC4; @ 20 μM, read-out: HDAC4 percentual inhibition",7%
same,IC50,Sirt2,0.56 µM
same,EC50,"[1]; MTT, mean ± SD",21.1 ± 6.7 µM
same,IC50,Sirt6,> 500 µM
same,inhibition at 200 µM,"Sirt6; @ 200 µM, read-out: Sirt6 percentual inhibition",0%
same,inhibition at 500 µM,"Sirt6; @ 500 µM, read-out: Sirt6 percentual inhibition",10%
same,EC50,"W1 ovarian cancer cells; MTT, mean ± SD",19.2 ± 1.3 µM
same,IC50,"HDAC1; deacetylation, mean ± SD",2.2 ± 0.2 µM
same,α-tubulin acetylation (immunofluorescence),α-tubulin acetylation,the increase in tubulin hyperacetylation was especially pronounced
same,inhibition at 20 µM,Sirt3,< 15%
same,IC50,HDAC3/NcoR2,2.5 ± 0.2 µM
same,EC50,"[2]; MTS, mean ± SD",12.9 ± 0.9 µM
"Cc1cc(C)nc(SCC(=O)Nc2ncc(Cc3cccc(OCc4cn(Cc5ccccc5)nn4)c3)s2)n1 [Compound 4, SirReal1.1, reference compound]",IC50,Sirt2,0.2 µM
same,inhibition at 100 µM,"[1]; @ 0.1 mM, read-out: MCF-7 percentual inhibition",3%
same,inhibition at 100 µM,"W1 ovarian cancer cells; @ 0.1 mM, read-out: W1 percentual inhibition",3%
same,inhibition at 10 µM,"HDAC1; @ 10 μM, read-out: HDAC1 percentual inhibition",10%
same,α-tubulin acetylation (immunofluorescence),α-tubulin acetylation,very minor
same,inhibition at 20 µM,Sirt3,< 15%
same,inhibition at 50 µM,"[2]; @ 50 μM, read-out: HGC27 percentual inhibition",39%

# Source: PMC10641818, “Development of First-in-Class Dual Sirt2/HDAC6 Inhibitors as Molecular Tools for Dual Inhibition of Tubulin Deacetylation” (Journal of Medicinal Chemistry, 2023)
